This is an account of results in patent US9981909B2 (Janssen Pharmaceutica NV, priority 2008, dated 2018).

One experiment addresses rat 5-HT7 receptor (Rattus norvegicus (Rat), UniProt P32305). The experiment is described as follows: r5-HT7 binding assay, competitive radioligand binding with [3H]5-CT. The procedure, abridged:
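Competition against [3H]5-CT on rat 5-HT7 HEK-293 membranes; Ki from radioactivity. Functional: 10 min compound, 100 nM 5-CT for 20 min, cAMP immunoassay after lysis.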

The next experiment concerns the target human SERT (Homo sapiens (Human), UniProt P31645). The experiment is described as follows: human SERT binding assay with [3H]-citalopram on HEK-293 membranes. The conditions noted are these: read-out: hSERT binding Ki.
In a further experiment the target is r5-HT7 receptor (Rattus norvegicus (Rat), UniProt P32305). Nature of the experiment: HitHunter cAMP assay, antagonist testing against 100 nM 5-CT. The format is cell-based. To be noted: antagonist testing, 100 nM 5-CT challenge, HEK-293 r5-HT7; read-out: R5HT7 cAMP pKb (converted). The method, then:
Receptor binding was performed using membrane fractions prepared from the HEK-293 cell line recombinantly expressing rat 5-HT7 receptors (NCBI accession NM_022938). Compound affinity for the rat 5-HT7 receptor subtype was evaluated by competitive radioligand binding assays using 5-carboxamido[^3H]tryptamine ([^3H]5-CT) (Amersham Biosciences, cat. 90000403) detection. HitHunter™ cAMP assays are in-vitro based competitive immunoassays. The assay was performed on the HEK-293 cell line stably transfected with r5-HT7 receptor. Cells were pre-incubated with test compounds for 10 minutes. For antagonist testing, the cells were then challenged with 100 nM 5-CT for 20 minutes. Cells were then lysed and cAMP measured according to manufacturers protocol (Amersham, cat. NET791250UC) or [^3H]mesulergine (Amersham, cat. TRK1041). The assay was performed on membranes prepared from HEK-293 cells stably transfected with h5-HT6. Following centrifugation, membranes were resuspended and incubated for 60 min at room temperature with 1.7 nM [^3H]LSD in the presence of increasing concentration of test compounds. Nonspecific binding was defined in the presence of 10 μM clozapine (Tocris, cat. TRK1068). Homogenized HEK-293 membranes expressing the human SERT were incubated in 50 mM Tris-HCl (pH 7.5), 120 mM NaCl, 5 mM KCl with [^3H]-citalopram (3 nM) with or without test compounds. Nonspecific binding was determined in the presence of 10 μM fluoxetine. Radioactivity readouts and Ki values were performed as previously described for r5-HT7. […] Compounds were assayed in their free form or as salts, as indicated in the Examples section above.
(In general: cAMP levels reflect the balance of adenylyl cyclase and phosphodiesterase activity.)

Setting [1] is: rat 5-HT7 receptor, HEK-293 membranes.

Counter-ions that a name gives are not always drawn.

Chain of rat 5-HT7 receptor (P32305 1-435): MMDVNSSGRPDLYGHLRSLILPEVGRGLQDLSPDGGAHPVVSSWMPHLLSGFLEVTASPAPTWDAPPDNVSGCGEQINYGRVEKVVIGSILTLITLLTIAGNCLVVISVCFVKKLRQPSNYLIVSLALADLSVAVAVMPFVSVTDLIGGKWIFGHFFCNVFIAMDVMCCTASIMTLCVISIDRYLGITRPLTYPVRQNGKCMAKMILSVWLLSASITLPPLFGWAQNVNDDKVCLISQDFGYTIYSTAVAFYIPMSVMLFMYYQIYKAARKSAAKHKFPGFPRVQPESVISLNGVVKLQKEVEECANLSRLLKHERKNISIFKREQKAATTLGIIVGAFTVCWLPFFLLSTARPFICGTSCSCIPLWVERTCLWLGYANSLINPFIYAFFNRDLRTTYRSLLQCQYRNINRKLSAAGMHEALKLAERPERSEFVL
Chain of r5-HT7 receptor (P32305 1-435): as above
Chain of human SERT (P31645 whole entry): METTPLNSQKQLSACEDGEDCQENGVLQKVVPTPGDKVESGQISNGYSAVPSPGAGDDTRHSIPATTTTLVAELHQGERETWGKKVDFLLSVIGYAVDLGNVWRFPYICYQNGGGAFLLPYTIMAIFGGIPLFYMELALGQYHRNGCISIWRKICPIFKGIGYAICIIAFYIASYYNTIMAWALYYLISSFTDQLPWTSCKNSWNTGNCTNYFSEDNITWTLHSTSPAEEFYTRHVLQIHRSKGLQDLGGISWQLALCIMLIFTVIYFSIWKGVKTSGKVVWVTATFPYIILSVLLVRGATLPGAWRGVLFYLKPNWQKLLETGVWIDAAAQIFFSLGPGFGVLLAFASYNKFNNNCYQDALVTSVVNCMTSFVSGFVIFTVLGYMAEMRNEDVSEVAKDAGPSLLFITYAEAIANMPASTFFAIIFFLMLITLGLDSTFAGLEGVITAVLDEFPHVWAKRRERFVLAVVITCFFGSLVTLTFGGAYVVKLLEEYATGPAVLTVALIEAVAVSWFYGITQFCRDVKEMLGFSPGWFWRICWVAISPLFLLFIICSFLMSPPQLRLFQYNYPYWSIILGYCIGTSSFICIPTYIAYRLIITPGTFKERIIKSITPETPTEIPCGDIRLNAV

In the case of `Fc1ccc2c(c1)C(Oc1ccc(Cl)cc1OC1CNC1)CC2` (racemic) [Example 150, (±)-3-[5-Chloro-2-(6-fluoro-indan-1-yloxy)-phenoxy]-azetidine], the Ki at rat 5-HT7 receptor (setting [1]) amounted to 10 nM; on human SERT it was 13 nM. In addition, the Kb on r5-HT7 receptor was 10 nM.
Consider `N#Cc1cccc(COc2ccc(Br)cc2OC2CNC2)c1` [Example 9, 3-[2-(Azetidin-3-yloxy)-4-bromo-phenoxymethyl]-benzonitrile], for which the Ki on rat 5-HT7 receptor (setting [1]) was 11 nM; on human SERT, 2 nM. In addition, the Kb on r5-HT7 receptor is 20 nM.
On the same counts, the results for `Clc1ccc(COc2ccc(Cl)cc2OC2CNC2)cc1` [Example 36, 3-[5-Chloro-2-(4-chloro-benzyloxy)-phenoxy]-azetidine trifluoroacetate] are 15 nM, 36 nM and 794 nM.
On the same counts, the results for `CN1CC(Oc2cc(F)ccc2OCc2cccc(Cl)c2)C1` [Example 203, 3-[2-(3-Chloro-benzyloxy)-5-fluoro-phenoxy]-1-methyl-azetidine] are 24 nM, 271 nM and 20 nM.
As for `Fc1ccc2c(c1)CCC2Oc1ccc(Br)cc1OC1CNC1` (racemic) [Example 154, (±)-3-[5-Bromo-2-(5-fluoro-indan-1-yloxy)-phenoxy]-azetidine], the Ki worked out at 18 nM at rat 5-HT7 receptor (setting [1]) and 13 nM on human SERT. Moreover, the Kb on r5-HT7 receptor is 20 nM.
Turning to `O=C(c1ccc2c(c1)OCO2)c1ccc(Br)cc1OC1CNC1` [Example 289, [2-(Azetidin-3-yloxy)-4-bromo-phenyl]-benzo[1,3]dioxol-5-yl-methanone], the Ki at rat 5-HT7 receptor (rat 5-HT7, HEK-293 membranes) worked out at 34 nM; on human SERT it was 437 nM. Also, the Kb on r5-HT7 receptor is 39.8 nM.
Turning to `Clc1ccc(OCc2ccccc2)c(OC2CNC2)c1` [Example 40, 3-(2-Benzyloxy-5-chloro-phenoxy)-azetidine], the Ki is 9 nM at rat 5-HT7 receptor (setting [1]) and 43 nM at human SERT. Further, the Kb on r5-HT7 receptor is 39.8 nM.
On the same counts, the results for `Clc1cccc(COc2ccc(Br)cc2OC2CN(C3CCC3)C2)c1` [Example 3, 3-[5-Bromo-2-(3-chloro-benzyloxy)-phenoxy]-1-cyclobutyl-azetidine] are 18 nM, 381 nM and 2.51 nM.
The matching figures for `FC(F)(F)c1cc(COc2ccc(Cl)cc2OC2CNC2)ccc1Cl` [Example 49, 3-[5-Chloro-2-(4-chloro-3-trifluoromethyl-benzyloxy)-phenoxy]-azetidine]: 13 nM, 40 nM and 25.1 nM.
Take `COc1cccc(COc2ccc(Cl)cc2OC2CNC2)c1` [Example 33, 3-[5-Chloro-2-(3-methoxy-benzyloxy)-phenoxy]-azetidine]: the Ki worked out at 7 nM on rat 5-HT7 receptor (setting [1]) and 8 nM at human SERT. Further, the Kb on r5-HT7 receptor is 15.8 nM.
Consider `Clc1ccc(Oc2ccc3ccccc3c2)c(OC2CNC2)c1` [Example 260, 3-[5-Chloro-2-(naphthalen-2-yloxy)-phenoxy]-azetidine], for which the Ki was 16 nM at rat 5-HT7 receptor (rat 5-HT7, HEK-293 membranes) and 2 nM at human SERT. The Kb on r5-HT7 receptor was 1000 nM.
`CCCN1CC(Oc2cc(Br)ccc2OCc2cccc(F)c2)C1` [Example 19, 3-[5-Bromo-2-(3-fluoro-benzyloxy)-phenoxy]-1-propyl-azetidine]: the figures for the inhibition constant Ki at rat 5-HT7 receptor (setting [1]) and on human SERT were 4 nM and 396 nM, respectively. The Kb on r5-HT7 receptor is 2 nM.
The matching figures for `N#Cc1cccc(COc2ccc(Cl)cc2OC2CNC2)c1` [Example 34, 3-[2-(Azetidin-3-yloxy)-4-chloro-phenoxymethyl]-benzonitrile]: 29 nM, 1 nM and 39.8 nM.
Take `Clc1ccc(COc2ccc(Br)cc2OC2CNC2)cc1` [Example 14, 3-[5-Bromo-2-(4-chloro-benzyloxy)-phenoxy]-azetidine trifluoroacetate]: the Ki is 12 nM on rat 5-HT7 receptor (setting [1]) and 52 nM on human SERT. Further, on r5-HT7 receptor, the Kb is 158 nM.
The matching figures for `FC(F)(F)c1cccc(COc2ccc(Br)cc2OC2CNC2)c1` [Example 8, 3-[5-Bromo-2-(3-trifluoromethyl-benzyloxy)-phenoxy]-azetidine]: 6 nM, 4 nM and 7.94 nM.
On the same counts, the results for `FC(F)(F)Oc1cccc(COc2ccc(Br)cc2OC2CNC2)c1` [Example 7, 3-[5-Bromo-2-(3-trifluoromethoxy-benzyloxy)-phenoxy]-azetidine] are 10 nM, 23 nM and 63.1 nM.
On the same counts, the results for `Clc1ccc2c(c1)CCC2Oc1ccc(Br)cc1OC1CNC1` (racemic) [Example 152, (±)-3-[5-Bromo-2-(5-chloro-indan-1-yloxy)-phenoxy]-azetidine] are 19 nM, 25 nM and 39.8 nM.
For the compound `CC(C)N1CC(Oc2cc(F)ccc2OCc2ccc(C(F)(F)F)o2)C1` [Example 209, 3-[5-Fluoro-2-(5-trifluoromethyl-furan-2-ylmethoxy)-phenoxy]-1-isopropyl-azetidine], the Ki turned out to be 13 nM at rat 5-HT7 receptor (setting [1]) and 20 nM on human SERT. For the same compound, the Kb on r5-HT7 receptor was 20 nM.
Regarding `CC(Oc1ccc(Cl)cc1OC1CNC1)c1cccc(C(F)(F)F)c1` (racemic) [Example 105, (±)-3-[5-Chloro-2-[1-(3-trifluoromethyl-phenyl)-ethoxy]-phenoxy]-azetidine], the results for the Ki on rat 5-HT7 receptor (setting [1]) and on human SERT were 23 nM and 193 nM, respectively. For the same compound, the Kb on r5-HT7 receptor was 50.1 nM.
On the same counts, the results for `Clc1ccc(OC2CCCc3ccccc32)c(OC2CNC2)c1` (stereo not drawn) [Example 161, 3-[5-Chloro-2-(1,2,3,4-tetrahydro-naphthalen-1-yloxy)-phenoxy]-azetidine] are 28 nM, 60 nM and 15.8 nM.
On the same counts, the results for `Brc1ccc(OC2Cc3ccccc3C2)c(OC2CNC2)c1` [Example 174, 3-[5-Bromo-2-(indan-2-yloxy)-phenoxy]-azetidine] are 6 nM, 42 nM and 6.31 nM.
With `COc1ccc(COc2ccc(Br)cc2OC2CNC2)cc1Cl` [Example 13, 3-[5-Bromo-2-(3-chloro-4-methoxy-benzyloxy)-phenoxy]-azetidine], the values for the Ki on rat 5-HT7 receptor (setting [1]) and on human SERT were 4 nM and 6 nM, respectively. The Kb on r5-HT7 receptor is 3.98 nM.
The matching figures for `CCN1CC(Oc2cc(Br)ccc2OCc2cccc(Cl)c2)C1` [Example 6, 3-[5-Bromo-2-(3-chloro-benzyloxy)-phenoxy]-1-ethyl-azetidine]: 6 nM, 249 nM and 3.98 nM.
The matching figures for `ON=C(COc1ccc(Cl)cc1OC1CNC1)c1ccccc1` [Example 181, 2-[2-(Azetidin-3-yloxy)-4-chloro-phenoxy]-1-phenyl-ethanone oxime]: 19 nM, 967 nM and 20 nM.
On the same counts, the results for `CC(Oc1ccc(Cl)cc1OC1CNC1)c1cccc(Cl)c1` (racemic) [Example 114, (±)-3-[5-Chloro-2-[1-(3-chloro-phenyl)-ethoxly]-phenoxy]-azetidine] are 14 nM, 75 nM and 31.6 nM.
Turning to `FC(F)(F)c1ccc(COc2ccc(Cl)cc2OC2CCNCC2)o1` [Example 63, 4-[5-Chloro-2-(5-trifluoromethyl-furan-2-ylmethoxy)-phenoxy]-piperidine hydrochloride], the Ki on rat 5-HT7 receptor (setting [1]) was 7 nM; on human SERT, 48 nM. For the same compound, the Kb on r5-HT7 receptor is 25.1 nM.
The matching figures for `Clc1ccc(OCc2ccc(Cl)c(Cl)c2)c(OC2CNC2)c1` [Example 50, 3-[5-Chloro-2-(3,4-dichloro-benzyloxy)-phenoxy]-azetidine]: 10 nM, 5 nM and 31.6 nM.
`Clc1ccc(OCc2ccccc2Cl)c(OC2CNC2)c1` [Example 35, 3-[5-Chloro-2-(2-chloro-benzyloxy)-phenoxy]-azetidine trifluroacetate]: the Ki at rat 5-HT7 receptor (setting [1]) is 23 nM; on human SERT, 3 nM. In addition, the Kb at r5-HT7 receptor was 1000 nM.
The matching figures for `Fc1ccc(COc2ccc(Br)cc2OC2CNC2)cc1Cl` [Example 12, 3-[5-Bromo-2-(3-chloro-4-fluoro-benzyloxy)-phenoxy]-azetidine]: 11 nM, 6 nM and 3.16 nM.
The matching figures for `Fc1ccc(COc2ccc(Cl)cc2OC2CNC2)cc1` [Example 25, 3-[5-Chloro-2-(4-fluoro-benzyloxy)-phenoxy]-azetidine hydrochloride]: 18 nM, 19 nM and 39.8 nM.

What is called Ki is a measure of affinity in units of concentration, obtained from inhibition or displacement.
